Data reported in patent US20230365576A1, “BRM Targeting Compounds And Associated Methods Of Use” (Prelude Therapeutics Incorporated, priority 2022, published 2023).

Experiments:
SMARCA2 = target: T1, SMARCA2 (Homo sapiens, UniProt P51531); test: SMARCA2 HiBiT degradation assay in HeLa cells; format: cell-based; details: 18 hours; for DC50: read-out: SMARCA2 IC50; for Dmax: HeLa
T1 construct: SMARCA2-HiBiT knock-in Hela monoclonal cell (CS302366); host or cells: HeLa (CRISPR HiBiT knock-in monoclonal line, heterozygous)
T1 sequence (P51531 whole entry): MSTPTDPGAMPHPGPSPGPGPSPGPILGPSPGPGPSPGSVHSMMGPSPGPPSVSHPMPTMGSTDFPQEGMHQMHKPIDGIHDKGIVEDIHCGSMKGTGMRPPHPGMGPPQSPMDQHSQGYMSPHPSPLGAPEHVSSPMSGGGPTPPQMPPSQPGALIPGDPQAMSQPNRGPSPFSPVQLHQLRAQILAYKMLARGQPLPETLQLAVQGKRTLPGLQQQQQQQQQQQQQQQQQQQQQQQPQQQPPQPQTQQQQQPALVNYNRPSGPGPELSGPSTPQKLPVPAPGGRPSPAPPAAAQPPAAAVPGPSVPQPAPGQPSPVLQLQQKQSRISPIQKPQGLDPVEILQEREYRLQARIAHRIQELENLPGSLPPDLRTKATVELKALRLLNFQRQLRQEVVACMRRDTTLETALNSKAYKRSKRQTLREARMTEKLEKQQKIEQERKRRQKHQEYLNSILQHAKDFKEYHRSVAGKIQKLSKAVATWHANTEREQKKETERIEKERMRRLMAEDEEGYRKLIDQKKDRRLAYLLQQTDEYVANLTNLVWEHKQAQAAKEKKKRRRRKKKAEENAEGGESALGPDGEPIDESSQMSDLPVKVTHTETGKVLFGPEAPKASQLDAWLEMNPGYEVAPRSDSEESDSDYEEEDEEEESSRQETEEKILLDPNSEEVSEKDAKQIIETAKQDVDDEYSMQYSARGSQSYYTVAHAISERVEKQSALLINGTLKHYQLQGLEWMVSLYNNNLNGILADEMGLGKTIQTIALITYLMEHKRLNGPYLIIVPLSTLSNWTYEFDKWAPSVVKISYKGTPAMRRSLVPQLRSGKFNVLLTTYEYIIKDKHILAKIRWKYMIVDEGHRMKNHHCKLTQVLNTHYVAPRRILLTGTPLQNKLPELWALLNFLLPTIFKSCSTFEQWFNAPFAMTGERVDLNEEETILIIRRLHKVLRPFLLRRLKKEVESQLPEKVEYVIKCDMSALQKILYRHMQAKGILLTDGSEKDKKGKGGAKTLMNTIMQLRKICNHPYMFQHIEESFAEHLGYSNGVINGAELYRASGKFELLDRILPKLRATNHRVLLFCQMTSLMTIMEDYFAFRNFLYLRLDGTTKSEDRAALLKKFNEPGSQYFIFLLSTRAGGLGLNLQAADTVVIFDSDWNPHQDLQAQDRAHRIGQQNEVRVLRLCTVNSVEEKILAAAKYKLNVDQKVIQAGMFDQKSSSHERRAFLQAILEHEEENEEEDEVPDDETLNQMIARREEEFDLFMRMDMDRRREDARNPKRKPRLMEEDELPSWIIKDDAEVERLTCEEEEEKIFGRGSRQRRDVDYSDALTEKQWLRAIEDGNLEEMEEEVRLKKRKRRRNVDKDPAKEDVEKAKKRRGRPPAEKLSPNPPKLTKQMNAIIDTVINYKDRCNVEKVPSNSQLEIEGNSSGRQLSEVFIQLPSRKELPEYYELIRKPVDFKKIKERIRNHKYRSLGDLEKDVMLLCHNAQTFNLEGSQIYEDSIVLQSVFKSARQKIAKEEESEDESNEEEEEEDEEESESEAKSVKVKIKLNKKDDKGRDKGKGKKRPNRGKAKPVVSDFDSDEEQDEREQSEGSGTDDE
Protocol: (§1) Example A. SMARCA2 HiBiT and SMARCA4 HiBiT Degradation Assay
(§2) Preparation of SMARCA2/4-HiBiT Knock-In Cells
(§3) HiBiT peptide knock-in of SMARCA2 in LgBiT expressing HEK293T cells was performed by CRISPR-mediated tagging system as described Promega. The homozygous HiBiT knock-in on c-terminus SMARCA2 was confirmed by sanger sequence. SMARCA2-HiBiT knock-in Hela monoclonal cell (CS302366) and SMARCA4-HiBiT knock-in Hela monoclonal cell (CS3023226) were purchased from Promega. The heterozygous HiBiT-knock-in was confirmed by sanger sequence in both SMARCA2-HiBiT and SMARCA4-HiBiT monoclonal cells.
(§4) SMARCA2 HiBiT and SMARCA4 HiBiT Degradation Assay in HeLa Cells
(§5) Compounds were dissolved in DMSO to make 10 mM stock and 3-fold series dilutions were further conducted keeping the highest concentration 10 μM. NCIH1693 and NCIH520 cells were maintained in PRMI 1640 medium (Corning Cellgro, Catalog #:10-040-CV) supplemented with 10% v/v FBS (GE Healthcare, Catalog #: SH30910.03) by splitting 1:3 twice a week.
(§6) Dispense 10 ul aliquot of prepared Hela-SMARCA2-HiBiT or Hela-SMARCA4-HiBiT cells (1:1 ratio of cells:Trypan Blue (#1450013, Bio-Rad)) onto cell counting slide (#145-0011, Bio-Rad) and obtain cell density and cell viability using cell counter (TC20, Bio-Rad). Remove appropriate volume of resuspended cells from culture flask to accommodate 2500 cells/well @ 20 μL/well. Transfer Hela-HiBiT cells to 50 mL conical (#430290, Corning). Spin down at 1000 rpm for 5 min using tabletop centrifuge (SPINCHRON 15, Beckman). Discard supernatant and resuspend cell pellet in modified EMEM (#30-2003, ATCC) cell culture media containing 10% FBS (F2422-500ML, Sigma), and 1X Penicillin/Streptomycin (200 g/L) (30-002-CI, Corning) to a cell density of 125,000 cells/mL. Dispense 20 μL of resuspended Hela-HiBit cells per well in 384-well TC treated plate (#12-565-343, Thermo Scientific) using standard cassette (#50950372, Thermo Scientific) on Multidrop Combi (#5840310, Thermo Scientific) inside laminar flow cabinet. Dispense test compounds onto plates using digital liquid dispenser (D300E, Tecan). Incubate plates in humidified tissue culture incubator @37° C. for 18 hours. Add 20 μL of prepared Nano-Glo® HiBiT Lytic detection buffer (N3050, Promega) to each well of 384-well plate using small tube cassette (#24073295, Thermo Scientific) on Multidrop Combi, incubate @ RT for 30-60 min. Read plates on microplate reader (Envision 2105, PerkinElmer) using 384 well Ultra-Sensitive luminescence mode. Raw data files and compound information reports are swept into centralized data lake and deconvoluted using automated scripts designed by TetraScience, Inc. Data analysis, curve-fitting and reporting done in Dotmatics Informatics Suite using Screening Ultra module.

SMARCA4 = target: T2, SMARCA4 (Homo sapiens, UniProt P51532); test: SMARCA4 HiBiT degradation assay in HeLa cells; format: cell-based; details: 18 hours; for Dmax: HeLa
T2 construct: SMARCA4-HiBiT knock-in Hela monoclonal cell (CS3023226) were purchased from Promega; host or cells: HeLa (CRISPR HiBiT knock-in monoclonal line, heterozygous)
T2 sequence (P51532 whole entry): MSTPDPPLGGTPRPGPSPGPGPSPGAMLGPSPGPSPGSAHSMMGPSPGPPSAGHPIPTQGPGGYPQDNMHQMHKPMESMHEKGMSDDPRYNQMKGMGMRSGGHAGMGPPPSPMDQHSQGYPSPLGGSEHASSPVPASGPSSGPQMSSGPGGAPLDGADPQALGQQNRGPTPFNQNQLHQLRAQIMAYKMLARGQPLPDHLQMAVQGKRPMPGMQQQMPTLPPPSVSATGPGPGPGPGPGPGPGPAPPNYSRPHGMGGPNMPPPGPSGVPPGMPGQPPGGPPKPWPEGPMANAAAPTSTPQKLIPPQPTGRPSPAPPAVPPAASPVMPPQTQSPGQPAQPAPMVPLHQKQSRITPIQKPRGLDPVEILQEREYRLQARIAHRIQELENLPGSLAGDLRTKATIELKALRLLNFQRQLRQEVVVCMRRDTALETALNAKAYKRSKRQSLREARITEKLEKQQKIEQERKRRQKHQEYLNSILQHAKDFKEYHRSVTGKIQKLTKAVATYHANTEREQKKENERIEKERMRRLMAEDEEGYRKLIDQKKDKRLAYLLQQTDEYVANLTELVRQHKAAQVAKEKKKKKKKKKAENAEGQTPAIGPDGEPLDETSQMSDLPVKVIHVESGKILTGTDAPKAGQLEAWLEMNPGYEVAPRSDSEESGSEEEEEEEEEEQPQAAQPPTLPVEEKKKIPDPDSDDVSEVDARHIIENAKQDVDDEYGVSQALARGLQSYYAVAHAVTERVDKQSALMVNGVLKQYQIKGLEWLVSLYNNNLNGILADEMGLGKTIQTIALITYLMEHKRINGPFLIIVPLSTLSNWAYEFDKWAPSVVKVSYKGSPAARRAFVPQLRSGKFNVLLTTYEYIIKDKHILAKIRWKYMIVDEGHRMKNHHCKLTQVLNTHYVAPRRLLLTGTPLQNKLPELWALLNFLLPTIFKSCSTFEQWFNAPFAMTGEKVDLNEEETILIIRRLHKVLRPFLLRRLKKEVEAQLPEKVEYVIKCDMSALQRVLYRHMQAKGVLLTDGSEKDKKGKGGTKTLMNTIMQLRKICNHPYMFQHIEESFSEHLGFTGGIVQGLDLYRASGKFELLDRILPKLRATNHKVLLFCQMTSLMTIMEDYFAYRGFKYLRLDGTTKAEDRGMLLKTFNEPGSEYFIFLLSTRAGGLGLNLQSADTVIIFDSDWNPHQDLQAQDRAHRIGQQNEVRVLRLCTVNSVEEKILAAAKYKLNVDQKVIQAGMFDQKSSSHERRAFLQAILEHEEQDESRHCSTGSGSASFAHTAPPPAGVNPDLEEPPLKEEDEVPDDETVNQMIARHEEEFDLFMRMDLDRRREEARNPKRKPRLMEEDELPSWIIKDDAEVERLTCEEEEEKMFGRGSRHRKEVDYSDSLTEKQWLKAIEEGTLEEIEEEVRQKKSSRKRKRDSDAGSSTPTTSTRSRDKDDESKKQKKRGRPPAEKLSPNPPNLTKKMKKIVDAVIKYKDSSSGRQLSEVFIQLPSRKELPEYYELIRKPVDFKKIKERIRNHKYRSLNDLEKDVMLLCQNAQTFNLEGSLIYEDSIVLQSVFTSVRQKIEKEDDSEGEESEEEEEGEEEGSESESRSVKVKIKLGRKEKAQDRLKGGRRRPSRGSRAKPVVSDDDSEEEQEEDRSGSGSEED
Protocol: as §1, §2, §3, §4, §5, §6

DC50 (SMARCA2) [nM]	Dmax (SMARCA2) [%]	DC50 (SMARCA4) [nM]	Dmax (SMARCA4) [%]	SMILES
< 100	> 75	< 100	> 75	CC1(C)CN(CC2CCN(c3ccc4c(c3)C(=O)N(C3CCC(=O)NC3=O)C4)CC2)CCN1C(=O)N1CCN2c3cc(-c4cccc(F)c4O)nnc3NCC2(C)C1 (mixture of isomers) [Example 6, 3-(6-(4-((4-(2-(3-fluoro-2-hydroxyphenyl)-6a-methyl-6,6a,7,8,9,10-hexahydro-5H-pyrazino[1′,2′:4,5]pyrazino[2,3-c]pyridazine-8-carbonyl)-3,3-dimethylpiperazin-1-yl)methyl)piperidin-1-yl)-1-oxoisoindolin-2-yl)piperidine-2,6-dione]
< 100	> 75	< 100	50 to 75	CC1(C)CN(CC2CCN(c3ccc4c(c3)C(=O)N(C3CCC(=O)NC3=O)C4=O)CC2)CCN1C(=O)N1CCN2c3cc(-c4cccc(F)c4O)nnc3NCC2(C)C1 (mixture of isomers) [Example 7, 2-(2,6-dioxopiperidin-3-yl)-5-(4-((4-(2-(3-fluoro-2-hydroxyphenyl)-6a-methyl-6,6a,7,8,9,10-hexahydro-5H-pyrazino[1′,2′:4,5]pyrazino[2,3-c]pyridazine-8-carbonyl)-3,3-dimethylpiperazin-1-yl)methyl)piperidin-1-yl)isoindoline-1,3-dione]
< 100	> 75	< 100	50 to 75	CCC12CNc3nnc(-c4cccc(F)c4O)cc3N1CCN(C(=O)N1CCN(CC3CCN(c4ccc5c(c4)C(=O)N(C4CCC(=O)NC4=O)C5)CC3)CC1(C)C)C2 (mixture of isomers) [Example 8, 3-(6-(4-((4-(6a-ethyl-2-(3-fluoro-2-hydroxyphenyl)-6,6a,7,8,9,10-hexahydro-5H-pyrazino[1′,2′:4,5]pyrazino[2,3-c]pyridazine-8-carbonyl)-3,3-dimethylpiperazin-1-yl)methyl)piperidin-1-yl)-1-oxoisoindolin-2-yl)piperidine-2,6-dione]
< 100	> 75	< 100	50 to 75	CCC12CNc3nnc(-c4cc(F)cc(F)c4O)cc3N1CCN(C(=O)N1CCN(CC3CCN(c4ccc5c(c4)C(=O)N(C4CCC(=O)NC4=O)C5)CC3)CC1(C)C)C2 (mixture of isomers) [Example 27, 3-(6-(4-((4-(2-(3,5-difluoro-2-hydroxyphenyl)-6a-ethyl-6,6a,7,8,9,10-hexahydro-5H-pyrazino[1′,2′:4,5]pyrazino[2,3-c]pyridazine-8-carbonyl)-3,3-dimethylpiperazin-1-yl)methyl)piperidin-1-yl)-1-oxoisoindolin-2-yl)piperidine-2,6-dione]
< 100	> 75	< 100	< 50	CCC1CN(CC2CN(c3ccc4c(c3)C(=O)N(C3CCC(=O)NC3=O)C4)C2)CCN1C(=O)N1CCN2c3cc(-c4cc(F)cc(F)c4O)nnc3NC[C@H]2C1 (mixture of isomers) [Example 29, 3-(6-(3-((4-((S)-2-(3,5-difluoro-2-hydroxyphenyl)-6,6a,7,8,9,10-hexahydro-5H-pyrazino[1′,2′:4,5]pyrazino[2,3-c]pyridazine-8-carbonyl)-3-ethylpiperazin-1-yl)methyl)azetidin-1-yl)-1-oxoisoindolin-2-yl)piperidine-2,6-dione]
< 100	50 to 75	< 100	< 50	CC1(C)CN(CC2CCN(c3ccc4c(c3)C(=O)N(C3CCC(=O)NC3=O)C4)CC2)CCN1C(=O)N1CCN2c3cc(-c4cccc(Cl)c4O)nnc3NCC2(C)C1 (mixture of isomers) [Example 31, 3-(6-(4-((4-(2-(3-chloro-2-hydroxyphenyl)-6a-methyl-6,6a,7,8,9,10-hexahydro-5H-pyrazino[1′,2′:4,5]pyrazino[2,3-c]pyridazine-8-carbonyl)-3,3-dimethylpiperazin-1-yl)methyl)piperidin-1-yl)-1-oxoisoindolin-2-yl)piperidine-2,6-dione]
